Source: ChEMBL document CHEMBL4387741, “Optimization of novel reversible Bruton's tyrosine kinase inhibitors identified using Tethering-fragment-based screens” (Bioorg Med Chem, 2019)

How the values were obtained:
[1] = target: Cyclin-dependent kinase-like 5 (Homo sapiens) (UniProt O76039); experiment: Inhibition of wild-type human partial length CDKL5 (M1 to S337 residues) expressed in mammalian expression system at 1 uM by Kinomescan method relative to control
[2] = target: Serine/threonine-protein kinase Nek6 (Homo sapiens) (UniProt Q9HC98); experiment: Inhibition of wild-type human full length NEK6 (M8 to T313 residues) expressed in bacterial expression system at 1 uM by Kinomescan method relative to control
[3] = target: Muscle, skeletal receptor tyrosine-protein kinase (Homo sapiens) (UniProt O15146); experiment: Inhibition of wild-type human partial length MUSK (M553 to V869 residues) expressed in bacterial expression system at 1 uM by Kinomescan method relative to control
Sequence of Muscle, skeletal receptor tyrosine-protein kinase (Homo sapiens) (O15146 whole entry, the tested form may be a part): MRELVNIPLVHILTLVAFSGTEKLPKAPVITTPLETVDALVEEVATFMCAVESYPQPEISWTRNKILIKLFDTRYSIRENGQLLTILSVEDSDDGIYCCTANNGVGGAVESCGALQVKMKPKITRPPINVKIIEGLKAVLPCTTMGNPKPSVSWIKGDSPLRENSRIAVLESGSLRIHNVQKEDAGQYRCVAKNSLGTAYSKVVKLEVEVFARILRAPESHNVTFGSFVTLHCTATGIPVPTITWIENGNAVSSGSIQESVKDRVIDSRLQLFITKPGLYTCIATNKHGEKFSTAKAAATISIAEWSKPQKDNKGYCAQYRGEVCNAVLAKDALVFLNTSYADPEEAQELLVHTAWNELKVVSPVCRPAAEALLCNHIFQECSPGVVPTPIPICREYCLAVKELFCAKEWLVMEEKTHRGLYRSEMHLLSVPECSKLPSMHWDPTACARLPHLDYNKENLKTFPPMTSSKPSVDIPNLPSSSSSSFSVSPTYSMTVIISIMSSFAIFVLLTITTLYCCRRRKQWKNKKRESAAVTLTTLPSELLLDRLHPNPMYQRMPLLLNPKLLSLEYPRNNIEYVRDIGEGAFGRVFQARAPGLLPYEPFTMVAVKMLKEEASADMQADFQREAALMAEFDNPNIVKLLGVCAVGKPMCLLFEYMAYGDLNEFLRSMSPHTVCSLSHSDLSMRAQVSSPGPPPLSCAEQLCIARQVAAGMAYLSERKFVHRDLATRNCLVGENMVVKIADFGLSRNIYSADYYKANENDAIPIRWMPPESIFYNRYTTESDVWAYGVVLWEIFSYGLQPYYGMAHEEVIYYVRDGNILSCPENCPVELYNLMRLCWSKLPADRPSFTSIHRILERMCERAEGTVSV

[4] = target: Receptor tyrosine-protein kinase erbB-3 (Homo sapiens) (UniProt P21860); experiment: Inhibition of wild-type human partial length ERBB3 (G684 to A987 residues) expressed in mammalian expression system at 1 uM by Kinomescan method relative to control
[5] = target: RAC-alpha serine/threonine-protein kinase (Homo sapiens) (UniProt P31749); experiment: Inhibition of wild-type human partial length AKT1 expressed in bacterial expression system at 1 uM by Kinomescan method relative to control
[6] = target: Myosin-IIIa (Homo sapiens) (UniProt Q8NEV4); experiment: Inhibition of wild-type human partial length MYO3A (M1 to K338 residues) expressed in bacterial expression system at 1 uM by Kinomescan method relative to control
Sequence of Myosin-IIIa (Homo sapiens) (Q8NEV4 whole entry, the tested form may be a part): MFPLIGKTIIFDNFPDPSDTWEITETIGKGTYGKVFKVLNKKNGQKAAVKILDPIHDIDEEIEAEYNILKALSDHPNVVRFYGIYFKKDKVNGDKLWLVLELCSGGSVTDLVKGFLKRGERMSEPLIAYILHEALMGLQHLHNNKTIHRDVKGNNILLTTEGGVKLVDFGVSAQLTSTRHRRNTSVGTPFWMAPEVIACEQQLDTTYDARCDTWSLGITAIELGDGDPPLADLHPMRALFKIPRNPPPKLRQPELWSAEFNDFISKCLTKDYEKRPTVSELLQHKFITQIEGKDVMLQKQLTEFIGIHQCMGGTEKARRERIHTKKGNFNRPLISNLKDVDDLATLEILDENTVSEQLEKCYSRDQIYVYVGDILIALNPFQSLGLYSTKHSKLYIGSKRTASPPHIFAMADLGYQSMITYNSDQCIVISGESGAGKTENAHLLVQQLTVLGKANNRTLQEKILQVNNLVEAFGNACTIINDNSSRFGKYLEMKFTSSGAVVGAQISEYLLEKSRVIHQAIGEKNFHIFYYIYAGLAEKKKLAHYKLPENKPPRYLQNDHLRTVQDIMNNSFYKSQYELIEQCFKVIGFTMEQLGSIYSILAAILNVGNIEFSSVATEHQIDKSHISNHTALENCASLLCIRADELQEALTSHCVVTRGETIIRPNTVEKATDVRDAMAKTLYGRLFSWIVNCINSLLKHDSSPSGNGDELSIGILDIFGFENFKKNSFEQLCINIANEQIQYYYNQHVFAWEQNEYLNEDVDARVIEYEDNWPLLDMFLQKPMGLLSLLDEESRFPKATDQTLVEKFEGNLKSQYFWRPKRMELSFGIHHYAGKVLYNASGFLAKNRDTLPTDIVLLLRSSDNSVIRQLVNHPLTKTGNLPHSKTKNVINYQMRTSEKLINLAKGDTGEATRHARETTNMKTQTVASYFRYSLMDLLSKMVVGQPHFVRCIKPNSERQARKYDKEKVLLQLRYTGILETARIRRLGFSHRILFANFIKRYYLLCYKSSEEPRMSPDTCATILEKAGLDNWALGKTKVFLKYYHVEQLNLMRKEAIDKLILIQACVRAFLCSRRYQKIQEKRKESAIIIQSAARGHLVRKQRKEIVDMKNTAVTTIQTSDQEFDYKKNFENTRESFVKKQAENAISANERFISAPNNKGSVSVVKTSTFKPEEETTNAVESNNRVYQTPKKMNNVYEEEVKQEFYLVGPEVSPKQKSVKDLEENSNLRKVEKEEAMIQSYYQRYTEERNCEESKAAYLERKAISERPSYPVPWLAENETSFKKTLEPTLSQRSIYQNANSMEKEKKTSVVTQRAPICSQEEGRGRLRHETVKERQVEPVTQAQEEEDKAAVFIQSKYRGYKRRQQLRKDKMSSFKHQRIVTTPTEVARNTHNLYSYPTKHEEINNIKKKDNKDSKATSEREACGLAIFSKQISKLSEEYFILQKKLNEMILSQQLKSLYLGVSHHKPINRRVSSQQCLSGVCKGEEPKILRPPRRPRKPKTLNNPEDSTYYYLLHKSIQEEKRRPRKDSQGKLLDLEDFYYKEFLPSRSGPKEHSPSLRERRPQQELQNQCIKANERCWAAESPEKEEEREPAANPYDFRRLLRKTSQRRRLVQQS

[7] = target: TRAF2 and NCK-interacting protein kinase (Homo sapiens) (UniProt Q9UKE5); experiment: Inhibition of wild-type human partial length TNIK (D4 to K311 residues) expressed in bacterial expression system at 1 uM by Kinomescan method relative to control
[8] = target: Serine/threonine-protein kinase MRCK alpha (Homo sapiens) (UniProt Q5VT25); experiment: Inhibition of wild-type human partial length MRCKA (L57 to V418 residues) expressed in bacterial expression system at 1 uM by Kinomescan method relative to control
[9] = tested on: Epidermal growth factor receptor (Homo sapiens), P00533 [T790M]; experiment: Inhibition of human partial length EGFR T790M mutant (R669 to G1022 residues) expressed in mammalian expression system at 1 uM by Kinomescan method relative to control
[10] = target: Ribosomal protein S6 kinase alpha-1 (Homo sapiens) (UniProt Q15418); experiment: Inhibition of wild-type human partial length C-terminal RSK1 kinase domain 2 (P360 to L681 residues) expressed in bacterial expression system at 10 uM by Kinomescan method relative to control
[11] = target: Insulin receptor-related protein (Homo sapiens) (UniProt P14616); experiment: Inhibition of wild-type human partial length INSRR (R950 to E1278 residues) expressed in bacterial expression system at 10 uM by Kinomescan method relative to control
[12] = tested on: Phosphatidylinositol 4,5-bisphosphate 3-kinase catalytic subunit alpha isoform (Homo sapiens), P42336 [E545K]; experiment: Inhibition of human partial length PIK3CA E545K mutant (R108 to N1068 residues) expressed in mammalian expression system at 10 uM by Kinomescan method relative to control
Sequence of Phosphatidylinositol 4,5-bisphosphate 3-kinase catalytic subunit alpha isoform (Homo sapiens), P42336 [E545K] (P42336 whole entry E545K, the tested form may be a part, canonical isoform): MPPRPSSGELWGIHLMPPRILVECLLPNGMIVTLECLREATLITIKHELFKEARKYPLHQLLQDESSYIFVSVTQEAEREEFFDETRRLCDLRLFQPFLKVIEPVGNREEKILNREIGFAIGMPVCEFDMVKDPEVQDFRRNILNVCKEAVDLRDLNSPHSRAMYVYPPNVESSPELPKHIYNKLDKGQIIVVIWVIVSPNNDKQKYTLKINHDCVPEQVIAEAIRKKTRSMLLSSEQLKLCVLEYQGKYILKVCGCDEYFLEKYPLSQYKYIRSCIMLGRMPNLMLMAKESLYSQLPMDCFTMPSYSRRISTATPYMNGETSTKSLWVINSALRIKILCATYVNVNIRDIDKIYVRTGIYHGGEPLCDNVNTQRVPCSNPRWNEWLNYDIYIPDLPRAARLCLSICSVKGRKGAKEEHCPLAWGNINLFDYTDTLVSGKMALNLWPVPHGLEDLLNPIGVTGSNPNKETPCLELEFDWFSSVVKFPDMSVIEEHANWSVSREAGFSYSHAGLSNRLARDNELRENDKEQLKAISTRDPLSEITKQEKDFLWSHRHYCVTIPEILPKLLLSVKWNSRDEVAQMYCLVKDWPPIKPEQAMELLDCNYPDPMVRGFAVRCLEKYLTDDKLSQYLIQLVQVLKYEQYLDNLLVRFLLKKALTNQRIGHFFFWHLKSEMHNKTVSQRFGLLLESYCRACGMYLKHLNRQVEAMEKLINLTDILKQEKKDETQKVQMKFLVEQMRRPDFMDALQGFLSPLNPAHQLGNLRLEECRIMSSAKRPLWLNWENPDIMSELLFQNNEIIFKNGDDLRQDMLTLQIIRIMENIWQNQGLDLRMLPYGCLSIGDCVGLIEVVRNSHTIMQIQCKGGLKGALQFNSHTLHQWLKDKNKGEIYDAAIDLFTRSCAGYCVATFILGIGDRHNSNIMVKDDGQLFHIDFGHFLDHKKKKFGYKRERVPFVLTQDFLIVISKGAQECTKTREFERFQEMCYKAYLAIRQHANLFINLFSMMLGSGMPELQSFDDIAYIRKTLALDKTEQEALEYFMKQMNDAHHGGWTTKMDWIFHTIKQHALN

[13] = tested on: Mast/stem cell growth factor receptor Kit (Homo sapiens), P10721 [D816V]; experiment: Inhibition of human partial length KIT D816V mutant (I571 to D952 residues) expressed in bacterial expression system at 10 uM by Kinomescan method relative to control
[14] = target: Mitogen-activated protein kinase 3 (Homo sapiens) (UniProt P27361); experiment: Inhibition of wild-type human full length ERK1 (M1 to P379 residues) expressed in bacterial expression system at 10 uM by Kinomescan method relative to control
Sequence of Mitogen-activated protein kinase 3 (Homo sapiens) (P27361 whole entry, the tested form may be a part): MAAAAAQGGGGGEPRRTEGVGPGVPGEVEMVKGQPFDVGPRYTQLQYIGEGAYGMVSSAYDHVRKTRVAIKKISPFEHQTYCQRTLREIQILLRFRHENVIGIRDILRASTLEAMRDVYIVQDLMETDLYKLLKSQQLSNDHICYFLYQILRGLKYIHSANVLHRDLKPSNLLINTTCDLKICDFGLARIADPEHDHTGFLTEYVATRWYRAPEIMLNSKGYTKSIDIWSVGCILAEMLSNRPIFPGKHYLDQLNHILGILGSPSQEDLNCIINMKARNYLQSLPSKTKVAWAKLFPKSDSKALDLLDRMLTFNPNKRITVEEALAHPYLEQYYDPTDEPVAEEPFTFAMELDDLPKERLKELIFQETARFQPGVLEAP

[15] = target: 3-phosphoinositide-dependent protein kinase 1 (Homo sapiens) (UniProt O15530); experiment: Inhibition of wild-type human full length PDPK1 (M1 to Q556 residues) expressed in bacterial expression system at 10 uM by Kinomescan method relative to control
[16] = target: Focal adhesion kinase 1 (Homo sapiens) (UniProt Q05397); experiment: Inhibition of wild-type human partial length FAK (D402 to R696 residues) expressed in bacterial expression system at 10 uM by Kinomescan method relative to control
[17] = target: Cyclin-dependent kinase 9 (Homo sapiens) (UniProt P50750); experiment: Inhibition of wild-type human full length CDK9 (M1 to F372 residues) expressed in bacterial expression system at 10 uM by Kinomescan method relative to control
Sequence of Cyclin-dependent kinase 9 (Homo sapiens) (P50750 whole entry, the tested form may be a part): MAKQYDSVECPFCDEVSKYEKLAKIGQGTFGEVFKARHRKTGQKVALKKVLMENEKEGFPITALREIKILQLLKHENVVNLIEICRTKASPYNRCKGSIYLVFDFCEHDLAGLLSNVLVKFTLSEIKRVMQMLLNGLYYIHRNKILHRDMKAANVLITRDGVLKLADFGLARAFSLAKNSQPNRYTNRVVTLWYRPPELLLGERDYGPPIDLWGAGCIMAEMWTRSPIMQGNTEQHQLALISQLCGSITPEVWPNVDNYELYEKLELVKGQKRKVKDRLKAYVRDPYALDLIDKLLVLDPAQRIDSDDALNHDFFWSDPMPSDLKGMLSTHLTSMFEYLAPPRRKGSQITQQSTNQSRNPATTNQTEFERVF

[18] = target: Cyclin-dependent kinase-like 2 (Homo sapiens) (UniProt Q92772); experiment: Inhibition of wild-type human partial length CDKL2 (M1 to D327 residues) expressed in bacterial expression system at 10 uM by Kinomescan method relative to control
[19] = tested on: Proto-oncogene tyrosine-protein kinase receptor Ret (Homo sapiens), P07949 [M918T]; experiment: Inhibition of human partial length RET M918T mutant (E713 to D1014 residues) expressed in bacterial expression system at 10 uM by Kinomescan method relative to control
[20] = tested on: Tyrosine-protein kinase ABL1 (Homo sapiens), P00519 [F317I]; experiment: Inhibition of human phosphorylated ABL1 F317I mutant (S229 to K512 residues) expressed in mammalian expression system at 10 uM by Kinomescan method relative to control
[21] = target: Wee1-like protein kinase 2 (Homo sapiens) (UniProt P0C1S8); experiment: Inhibition of wild-type human partial length WEE2 (M204 to K492 residues) expressed in bacterial expression system at 10 uM by Kinomescan method relative to control
[22] = target: cGMP-dependent protein kinase 1 (Homo sapiens) (UniProt Q13976); experiment: Inhibition of wild-type human partial length PRKG1 (L339 to F686 residues) expressed in bacterial expression system at 10 uM by Kinomescan method relative to control
[23] = target: SNF-related serine/threonine-protein kinase (Homo sapiens) (UniProt Q9NRH2); experiment: Inhibition of wild-type human partial length SNRK (M1 to E339 residues) expressed in mammalian expression system at 10 uM by Kinomescan method relative to control
Sequence of SNF-related serine/threonine-protein kinase (Homo sapiens) (Q9NRH2 whole entry, the tested form may be a part): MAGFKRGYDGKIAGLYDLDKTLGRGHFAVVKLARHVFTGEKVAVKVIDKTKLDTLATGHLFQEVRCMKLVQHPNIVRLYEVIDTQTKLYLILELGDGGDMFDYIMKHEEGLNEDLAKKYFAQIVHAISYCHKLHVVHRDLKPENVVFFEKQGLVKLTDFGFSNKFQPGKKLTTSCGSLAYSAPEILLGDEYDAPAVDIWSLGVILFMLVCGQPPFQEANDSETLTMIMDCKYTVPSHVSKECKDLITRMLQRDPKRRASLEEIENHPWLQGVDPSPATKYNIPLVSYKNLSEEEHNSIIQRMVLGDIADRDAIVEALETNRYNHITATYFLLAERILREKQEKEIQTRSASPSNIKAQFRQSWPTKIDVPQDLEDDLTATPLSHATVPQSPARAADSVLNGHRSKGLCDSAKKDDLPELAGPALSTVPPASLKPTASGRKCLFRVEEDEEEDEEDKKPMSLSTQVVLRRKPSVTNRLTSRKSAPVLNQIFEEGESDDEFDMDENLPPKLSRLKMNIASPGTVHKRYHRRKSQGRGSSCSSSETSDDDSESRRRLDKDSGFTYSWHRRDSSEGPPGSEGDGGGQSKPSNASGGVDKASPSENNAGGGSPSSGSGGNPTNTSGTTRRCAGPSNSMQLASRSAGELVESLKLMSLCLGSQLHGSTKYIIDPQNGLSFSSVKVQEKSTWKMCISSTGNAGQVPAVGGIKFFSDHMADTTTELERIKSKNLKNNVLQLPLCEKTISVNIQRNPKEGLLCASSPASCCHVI

[24] = target: Tyrosine-protein kinase Lck (Homo sapiens) (UniProt P06239); experiment: Inhibition of wild-type human partial length LCK (R207 to P509 residues) expressed in bacterial expression system at 10 uM by Kinomescan method relative to control
[25] = target: AP2-associated protein kinase 1 (Homo sapiens) (UniProt Q2M2I8); experiment: Inhibition of human wild-type AAK1 (G25 to L333 residues) expressed in bacterial expression system at 10 uM by Kinomescan method relative to control
[26] = target: Receptor-interacting serine/threonine-protein kinase 1 (Homo sapiens) (UniProt Q13546); experiment: Inhibition of wild-type human partial length RIPK1 (M1 to K305 residues) expressed in bacterial expression system at 10 uM by Kinomescan method relative to control
[27] = target: Tyrosine-protein kinase SYK (Homo sapiens) (UniProt P43405); experiment: Inhibition of wild-type human partial length SYK (D354 to N635 residues) expressed in bacterial expression system at 10 uM by Kinomescan method relative to control

O=C(Nc1cccc([C@@H]2CN(c3ncnc4[nH]ccc34)CCN2CCO)c1)Nc1c(F)cccc1N1CCCC1
inhibition [1]: 100%
inhibition [2]: 86%
inhibition [3]: 100%
inhibition [4]: 74%
inhibition [5]: 100%
inhibition [6]: 82%
inhibition [7]: 81%
inhibition [8]: 100%
inhibition [9]: 96%

O=C(Nc1cccc([C@H]2CCCN(c3ncnc4[nH]ccc34)C2)c1)Nc1ccccc1N1CCCC1
inhibition [10]: 60%
inhibition [11]: 100%
inhibition [12]: 64%
inhibition [13]: 0.9%
inhibition [14]: 100%
inhibition [15]: 41%
inhibition [16]: 90%
inhibition [17]: 100%
inhibition [18]: 38%
inhibition [19]: 0%
inhibition [20]: 94%
inhibition [21]: 100%
inhibition [22]: 44%
inhibition [23]: 86%
inhibition [24]: 48%
inhibition [25]: 26%
inhibition [26]: 100%
inhibition [27]: 52%
